Experimental data: patent publication US7897582B2, “Oligonucleotide compositions and methods for the modulation of the expression of B7 protein” (Isis Pharmaceuticals, Inc., priority 2003, dated 2011)
Strand notation (5' to 3'): a small letter for the sugar, then the base; units joined by * are phosphorothioate-linked, units joined directly phosphodiester-linked; [ ] holds rarer units or linkages, { } end groups; capitals alone tell only the bases. e = 2'-O-(2-methoxyethyl) (MOE); [5mC] = 5-methylcytosine; d = 2'-deoxy (DNA)

Legend:
Human B7-1 mRNA = Human B7-1 mRNA expression in COS-7 cells, screened as in Example 4; format: cell-based
human B7.2 mRNA = test: Human B7.2 mRNA levels in THP-1 cells by quantitative real-time PCR (Example 27); format: cell-based; set-up: concentration or dose not given beside the values
Excerpt: In accordance with the present invention, an additional series of antisense compounds were designed to target different regions of the human B7.2 RNA, using published sequences (GenBank accession number U04343.1, incorporated herein as SEQ ID NO: 295, GenBank accession number BC040261.1, incorporated herein as SEQ ID NO: 296 and GenBank accession number NT—005543.12, a portion of which is incorporated herein as SEQ ID NO: 297). “Target site” indicates the first (5′-most) nucleotide number on the particular target sequence to which the compound binds. All compounds in Table 25 are chimeric oligonucleotides (“gapmers”) 20 nucleotides in length, composed of a central “gap” region consisting of ten 2′-deoxynucleotides, which is flanked on both sides (5′ and 3′ directions) by five-nucleotide “wings”. The wings are composed of 2′-methoxyethyl (2′-MOE)nucleotides. The internucleoside (backbone) linkages are phosphorothioate (P═S) throughout the oligonucleotide. All cytidine residues are 5-methylcytidines. The compounds were analyzed for their effect on human B7.2 mRNA levels in THP-1 cells by quantitative real-time PCR as described in other examples herein. Data are averages from three experiments. If present, “N.D.” indicates “no data”.

| Substance | % mRNA EXPRESSION (Human B7-1 mRNA; human B7-1 mRNA, Table 7) | % mRNA INHIBITION (Human B7-1 mRNA; human B7-1 mRNA, Table 7) | % INHIB (inhibition of human B7.2 mRNA levels) (human B7.2 mRNA) | other results |
| --- | --- | --- | --- | --- |
| 22321 (eG*eA*e[5mC]*e[5mC]*eA*dG*d[5mC]*d[5mC]*dA*dG*d[5mC]*dA*d[5mC]*d[5mC]*dA*eA*eG*eA*eG*e[5mC]; antisense) [compound 22321] | 57% | 43% |  |  |
| 22326 (antisense eG*eT*eA*eT*eG*dT*dG*d[5mC]*d[5mC]*d[5mC]*dT*d[5mC]*dG*dT*d[5mC]*eA*eG*eA*eT*eG) [compound 22326] | 62% | 38% |  |  |
| 22328 (antisense eG*eG*eA*eA*eG*dT*d[5mC]*dA*dG*d[5mC]*dT*dT*dT*dG*dA*e[5mC]*eT*eG*eA*eT) [compound 22328] | 64% | 36% |  |  |
| 22329 (antisense e[5mC]*e[5mC]*eT*e[5mC]*e[5mC]*dA*dG*dA*dG*dG*dT*dT*dG*dA*dG*e[5mC]*eA*eA*eA*eT) [compound 22329] | 59% | 41% |  |  |
| 22330 (antisense e[5mC]*e[5mC]*eA*eA*e[5mC]*d[5mC]*dA*dG*dG*dA*dG*dA*dG*dG*dT*eG*eA*eG*eG*e[5mC]) [compound 22330] | 54% | 46% |  |  |
| 22331 (antisense eG*eA*eA*eG*e[5mC]*dT*dG*dT*dG*dG*dT*dT*dG*dG*dT*eT*eG*eT*e[5mC]*eA) [compound 22331] | 62% | 38% |  |  |
| 22332 (antisense eT*eT*eG*eA*eA*dG*dG*dT*d[5mC]*dT*dG*dA*dT*dT*d[5mC]*eA*e[5mC]*eT*e[5mC]*eT) [compound 22332] | 67% | 33% |  |  |
| 22333 (antisense eA*eA*eG*eG*eT*dA*dA*dT*dG*dG*d[5mC]*d[5mC]*d[5mC]*dA*dG*eG*eA*eT*eG*eG) [compound 22333] | 73% | 27% |  |  |
| 22336 (antisense eA*eG*e[5mC]*e[5mC]*e[5mC]*d[5mC]*dT*dT*dG*d[5mC]*dT*dT*d[5mC]*dT*dG*e[5mC]*eG*eG*eA*e[5mC]) [compound 22336] | 55% | 45% |  |  |
| 22339 (antisense eG*eT*eA*eA*eA*dA*d[5mC]*dA*dG*d[5mC]*dT*dT*dA*dA*dA*eT*eT*eT*eG*eT) [compound 22339] | 69% | 31% |  |  |
| 22340 (antisense eA*eG*eA*eA*eG*dA*dG*dG*dT*dT*dA*d[5mC]*dA*dT*dT*eA*eA*eG*e[5mC]*eA) [compound 22340] | 71% | 29% |  |  |
| 22341 (antisense eA*eG*eA*eT*eA*dA*dT*dG*dA*dA*dT*dT*dG*dG*d[5mC]*eT*eG*eA*e[5mC]*eA) [compound 22341] | 59% | 41% |  |  |
| 24733 (antisense eG*e[5mC]*eG*eT*e[5mC]*dA*dT*d[5mC]*dA*dT*d[5mC]*d[5mC]*dG*d[5mC]*dA*e[5mC]*e[5mC]*eA*eT*e[5mC]) [compound 24733] |  |  |  | % mRNA EXPRESSION (Human B7-1 mRNA; 10 nM, COS-7, Table 8): 90%; % mRNA INHIBITION (Human B7-1 mRNA; 10 nM, COS-7, Table 8): 10%; % mRNA EXPRESSION (Human B7-1 mRNA; 30 nM, COS-7, Table 8): 91%; % mRNA INHIBITION (Human B7-1 mRNA; 30 nM, COS-7, Table 8): 9%; % mRNA EXPRESSION (Human B7-1 mRNA; 100 nM, COS-7, Table 8): 90%; % mRNA INHIBITION (Human B7-1 mRNA; 100 nM, COS-7, Table 8): 10%; % mRNA EXPRESSION (Human B7-1 mRNA; 300 nM, COS-7, Table 8): 80%; % mRNA INHIBITION (Human B7-1 mRNA; 300 nM, COS-7, Table 8): 20% |
| 24734 (antisense e[5mC]*eG*eT*eT*eG*d[5mC]*dT*dT*dG*dT*dG*d[5mC]*d[5mC]*dG*dA*e[5mC]*eA*eG*eT*eG) [compound 24734] |  |  |  | % mRNA EXPRESSION (Human B7-1 mRNA; 10 nM, COS-7, Table 8): 94%; % mRNA INHIBITION (Human B7-1 mRNA; 10 nM, COS-7, Table 8): 6%; % mRNA EXPRESSION (Human B7-1 mRNA; 30 nM, COS-7, Table 8): 96%; % mRNA INHIBITION (Human B7-1 mRNA; 30 nM, COS-7, Table 8): 4%; % mRNA EXPRESSION (Human B7-1 mRNA; 100 nM, COS-7, Table 8): 94%; % mRNA INHIBITION (Human B7-1 mRNA; 100 nM, COS-7, Table 8): 6%; % mRNA EXPRESSION (Human B7-1 mRNA; 300 nM, COS-7, Table 8): 84%; % mRNA INHIBITION (Human B7-1 mRNA; 300 nM, COS-7, Table 8): 16% |
| 24735 (antisense eG*e[5mC]*eT*e[5mC]*eA*d[5mC]*dG*dA*dA*dG*dA*dA*d[5mC]*dA*d[5mC]*e[5mC]*eT*eT*e[5mC]*e[5mC]) [compound 24735] |  |  |  | % mRNA EXPRESSION (Human B7-1 mRNA; 10 nM, COS-7, Table 8): 100%; % mRNA EXPRESSION (Human B7-1 mRNA; 30 nM, COS-7, Table 8): 95%; % mRNA INHIBITION (Human B7-1 mRNA; 30 nM, COS-7, Table 8): 5%; % mRNA EXPRESSION (Human B7-1 mRNA; 100 nM, COS-7, Table 8): 81%; % mRNA INHIBITION (Human B7-1 mRNA; 100 nM, COS-7, Table 8): 19%; % mRNA EXPRESSION (Human B7-1 mRNA; 300 nM, COS-7, Table 8): 75%; % mRNA INHIBITION (Human B7-1 mRNA; 300 nM, COS-7, Table 8): 25% |
| 323624 (antisense eG*eT*eT*eA*e[5mC]*dT*d[5mC]*dA*dG*dT*d[5mC]*d[5mC]*d[5mC]*dA*dT*eA*eG*eT*eG*e[5mC]) [compound 323624] |  |  | 59% |  |
| 323625 (antisense e[5mC]*eA*eA*eA*eG*dA*dG*dA*dA*dT*dG*dT*dT*dA*d[5mC]*eT*e[5mC]*eA*eG*eT) [compound 323625] |  |  | 21% |  |

| Substance | % mRNA EXPRESSION (Human B7-1 mRNA; human B7-1 mRNA, Table 7) | % mRNA INHIBITION (Human B7-1 mRNA; human B7-1 mRNA, Table 7) | % INHIB (inhibition of human B7.2 mRNA levels) (human B7.2 mRNA) | other results |
| --- | --- | --- | --- | --- |
| 323626 (antisense e[5mC]*e[5mC]*eA*eT*e[5mC]*dA*d[5mC]*dA*dA*dA*dG*dA*dG*dA*dA*eT*eG*eT*eT*eA) [compound 323626] |  |  | 32% |  |
| 323627 (antisense eG*eG*eA*eA*eG*dG*d[5mC]*d[5mC]*dA*dT*d[5mC]*dA*d[5mC]*dA*dA*eA*eG*eA*eG*eA) [compound 323627] |  |  | 54% |  |
| 323628 (antisense eG*eA*eG*e[5mC]*eA*dG*dG*dA*dA*dG*dG*d[5mC]*d[5mC]*dA*dT*e[5mC]*eA*e[5mC]*eA*eA) [compound 323628] |  |  | 44% |  |
| 323629 (antisense e[5mC]*e[5mC]*eA*eG*eA*dG*dA*dG*d[5mC]*dA*dG*dG*dA*dA*dG*eG*e[5mC]*e[5mC]*eA*eT) [compound 323629] |  |  | 36% |  |
| 323630 (antisense eA*eA*eA*eT*eA*dA*dG*d[5mC]*dT*dT*dG*dA*dA*dT*d[5mC]*eT*eT*e[5mC]*eA*eG) [compound 323630] |  |  | 22% |  |
| 323631 (antisense eA*eG*eT*e[5mC]*eT*d[5mC]*dA*dT*dT*dG*dA*dA*dA*dT*dA*eA*eG*e[5mC]*eT*eT) [compound 323631] |  |  | 56% |  |
| 323632 (antisense eA*eG*eG*eT*e[5mC]*dT*dG*d[5mC]*dA*dG*dT*d[5mC]*dT*d[5mC]*dA*eT*eT*eG*eA*eA) [compound 323632] |  |  | 41% |  |
| 323633 (antisense e[5mC]*eT*eA*e[5mC]*eT*dA*dG*d[5mC]*dT*d[5mC]*dA*d[5mC]*dT*d[5mC]*dA*eG*eG*e[5mC]*eT*eT) [compound 323633] |  |  | 50% |  |
| 323634 (antisense eA*eA*eA*eT*eA*d[5mC]*dT*dA*d[5mC]*dT*dA*dG*d[5mC]*dT*d[5mC]*eA*e[5mC]*eT*e[5mC]*eA) [compound 323634] |  |  | 30% |  |
| 323635 (antisense e[5mC]*eT*eG*e[5mC]*e[5mC]*dA*dA*dA*dA*dT*dA*d[5mC]*dT*dA*d[5mC]*eT*eA*eG*e[5mC]*eT) [compound 323635] |  |  | 24% |  |
| 323636 (antisense eT*eT*e[5mC]*eA*eG*dA*dA*d[5mC]*d[5mC]*dA*dA*dG*dT*dT*dT*eT*e[5mC]*e[5mC]*eT*eG) [compound 323636] |  |  | 23% |  |
| 323637 (antisense e[5mC]*e[5mC]*eT*e[5mC]*eA*dT*dT*d[5mC]*dA*dG*dA*dA*d[5mC]*d[5mC]*dA*eA*eG*eT*eT*eT) [compound 323637] |  |  | 19% |  |
| 323638 (antisense eG*eT*eA*eT*eA*d[5mC]*d[5mC]*dT*d[5mC]*dA*dT*dT*d[5mC]*dA*dG*eA*eA*e[5mC]*e[5mC]*eA) [compound 323638] |  |  | 20% |  |
| 323639 (antisense eG*e[5mC]*e[5mC]*eT*eA*dA*dG*dT*dA*dT*dA*d[5mC]*d[5mC]*dT*d[5mC]*eA*eT*eT*e[5mC]*eA) [compound 323639] |  |  | 55% |  |
| 323640 (antisense e[5mC]*eT*e[5mC]*eT*eT*dT*dG*d[5mC]*d[5mC]*dT*dA*dA*dG*dT*dA*eT*eA*e[5mC]*e[5mC]*eT) [compound 323640] |  |  | 28% |  |
| 323641 (antisense e[5mC]*e[5mC]*e[5mC]*eA*eT*dA*dT*dA*d[5mC]*dT*dT*dG*dG*dA*dA*eT*eG*eA*eA*e[5mC]) [compound 323641] |  |  | 88% |  |
| 323642 (antisense e[5mC]*eT*eT*eG*eT*dG*d[5mC]*dG*dG*d[5mC]*d[5mC]*d[5mC]*dA*dT*dA*eT*eA*e[5mC]*eT*eT) [compound 323642] |  |  | 27% |  |
